Experimental findings from patent publication US12528802B2, “Heterocyclic compound” (Takeda Pharmaceutical Company Limited, priority 2019, dated 2026) are described below.

Molecules are shown by their SMILES.

The first assay addresses T1, glucosylceramide synthase (Homo sapiens, UniProt Q16739).
T1 construct: made in house; host or cells: Expi293F cells (transient expression, pcDNA3.3-TOPO vector); microsome fraction used as enzyme source
T1 sequence (Q16739 1-394): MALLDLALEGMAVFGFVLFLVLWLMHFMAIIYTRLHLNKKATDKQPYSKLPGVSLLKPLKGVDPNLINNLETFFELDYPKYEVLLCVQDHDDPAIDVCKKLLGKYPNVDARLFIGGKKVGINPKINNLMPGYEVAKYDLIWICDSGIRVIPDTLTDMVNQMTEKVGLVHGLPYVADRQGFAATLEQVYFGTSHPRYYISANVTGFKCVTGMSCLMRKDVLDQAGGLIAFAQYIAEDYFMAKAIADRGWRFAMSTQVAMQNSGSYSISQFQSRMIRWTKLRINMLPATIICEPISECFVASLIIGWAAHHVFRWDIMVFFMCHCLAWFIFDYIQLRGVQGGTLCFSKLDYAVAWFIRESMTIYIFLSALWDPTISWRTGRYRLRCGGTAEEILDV
In words: Glucosylceramide synthase (GCS) enzyme assay, microsome fraction, C8 glucosylceramide quantified by Rapidfire MS/MS. Conditions: test compound 10 μM; 1.7 μM UDP-glucose, 3 μM C8 ceramide; room temperature 60 min. It is filed as biochemical. The method, then: Glucosylceramide Synthase (GCS) Assay
In enzyme assay, a microsome fraction obtained by transient expression by Expi293F™ cells (catalog number: A14527, Thermo Fisher Scientific) was used as a glucosylceramide synthase source. Liposomal C8 ceramide and UDP-glucose were used as substrates. […] After the enzymatic reaction, the analysis was performed with Rapidfire MS/MS (API-4000™, SCIEX), and C8 glucosylceramide was quantified to evaluate the inhibitory activity of the test compound against glucosylceramide synthase activity.
PcDNA3.3TOPO vector (catalog number: K830001, Thermo Fisher Scientific) into which the human GCS gene was inserted was introduced into Expi293F™ Cells (catalog number: A14527, Thermo Fisher Scientific) by using ExpiFectamine™ 293 Transfection Kit (catalog number: A14525, Thermo Fisher Scientific). The cultured cells were dissolved in D-PBS (catalog number: 048-29805, Fuji Film Wako Pure Chemical Industries, Ltd.) containing 1 mM PMSF, and the solution was allowed to stand on ice for 30 minutes, and then subjected to cell disruption (homogenized). The disruption solution was centrifuged at 10,000×g for 20 minutes at 4° C., and the obtained supernatant was centrifuged at 142,400×g for 60 minutes at 4° C. The obtained precipitate was resuspended in a D-PBS solution containing 1 mM PMSF, and homogenized again to prepare as a microsome fraction. Protein quantification was performed by the CBB method.
A 1 mM compound solution prepared by dissolving the test compound in DMSO was added to a 384-well plate by 100 nL so that the final concentration of the test compound was 10 μM. Next, a substrate solution consisting of 3.4 μM UDP-glucose and 6 μM C8 ceramide was added by 5 μL, followed by an enzyme solution consisting of a 25 μg/mL microsome fraction by 5 μL. C8 ceramide was prepared from liposomes composed of 15 mol % C8 ceramide and 85 mol % dioleoyl phosphatidylcholine (1,2-dioleoyl-sn-glycero-3-phosphocholine: DOPC). The enzymatic reaction was carried out in a solution consisting of 20 mM tris-hydrochloric acid buffer (pH 7.5), 0.01% Tween 20, 0.01% bovine serum albumin and 1 mM dithiothreitol at room temperature for 60 min. Then, a solution consisting of 75% isopropanol and 1% formic acid containing 0.25 μM N-Octadecanoyl-D35-psichosine (catalog number: 1914, Matreya) as an internal standard substance was added by 60 μL to stop the enzymatic reaction. 5 μL of the centrifugal supernatant of the obtained reaction product was analyzed by Rapidfire MS/MS (Agilent Technologies) using API-4000™ (SCIEX), and the C8 glucosylceramide was quantified to evaluate the inhibitory activity of the test compound against the glucosylceramide synthase activity. The inhibitory activity of the test compound was evaluated when the C8 glucosylceramide level in the enzyme-free solution was considered as 100% inhibitory and the enzyme activity of the DMSO group in the absence of the compound was considered as 0% inhibitory.
`O=C1c2ccnc(-c3ccc(F)cc3OCC(F)(F)F)c2CN1c1ccc(C2(O)CCOC2)cc1` (single isomer, unassigned) [Example 263, (R or S)-4-[4-fluoro-2-(2,2,2-trifluoroethoxy)phenyl]-2-[4-(3-hydroxyoxolan-3-yl)phenyl]-2,3-dihydro-1H-pyrrolo[3,4-c]pyridin-1-one]: the “GCS enzyme inhibitory rate at 10 μM (%) (% of control)” value was 98%.
On to `O=C1c2ccnc(-c3ccc(F)cc3OCC(F)(F)F)c2CN1c1ccc(C2(O)CCOC2)cc1` (single isomer, unassigned) [Example 264, (R or S)-4-[4-fluoro-2-(2,2,2-trifluoroethoxy)phenyl]-2-[4-(3-hydroxyoxolan-3-yl)phenyl]-2,3-dihydro-1H-pyrrolo[3,4-c]pyridin-1-one], for which the “GCS enzyme inhibitory rate at 10 μM (%) (% of control)” value was determined as 98%.
Same read-out and setting: as for `O=C1c2ccnc(-c3ccccc3OCC(F)(F)F)c2CN1c1ccc(C(O)C(F)(F)F)nc1` (single isomer, unassigned) [Example 277, (R or S)-4-[2-(2,2,2-trifluoroethoxy)phenyl]-2-[6-(2,2,2-trifluoro-1-hydroxyethyl)pyridin-3-yl]-2,3-dihydro-1H-pyrrolo[3,4-c]pyridin-1-one], the figure is 98%; as for `O=C1c2ccnc(-c3ccc(F)cc3OCC(F)(F)F)c2CN1c1ccc(C(O)C(F)F)cc1` (single isomer, unassigned) [Example 279, (R or S)-2-[4-(2,2-difluoro-1-hydroxyethyl)phenyl]-4-[4-fluoro-2-(2,2,2-trifluoroethoxy)phenyl]-2,3-dihydro-1H-pyrrolo[3,4-c]pyridin-1-one], 99%; as for `O=C1c2ccnc(-c3ccc(F)cc3OCC(F)(F)F)c2CN1c1ccc(C(O)C(F)(F)F)cc1` (single isomer, unassigned) [Example 286, (R or S)-4-[4-fluoro-2-(2,2,2-trifluoroethoxy)phenyl]-2-[4-(2,2,2-trifluoro-1-hydroxyethyl)phenyl]-2,3-dihydro-1H-pyrrolo [3,4-c]pyridin-1-one], 96%.
The same measure, in the same setting: the figure for `O=C1c2ccnc(-c3ccc(F)cc3OCC(F)(F)F)c2CN1c1ccc(C2(O)CCOC2)cn1` (single isomer, unassigned) [Example 301, (R or S)-4-[4-fluoro-2-(2,2,2-trifluoroethoxy)phenyl]-2-[5-(3-hydroxyoxolan-3-yl)pyridin-2-yl]-2,3-dihydro-1H-pyrrolo [3,4-c]pyridin-1-one] is 97%.

The assay is the same for the next values; noted with them: test compound 10 μM; 1.7 μM UDP-glucose, 3 μM C8 ceramide; room temperature 60 min; read-out: GCS enzyme inhibitory rate at 10 μM (%) (% of control).
On to `CC(O)c1cc2c(c(-c3ccccc3OCC(F)F)n1)CN(c1ccc(OC(F)F)cc1)C2=O` (racemic) [Example 358, rac-4-[2-(2,2-difluoroethoxy)phenyl]-2-[4-(difluoromethoxy)phenyl]-6-(1-hydroxyethyl)-2,3-dihydro-1H-pyrrolo[3,4-c]pyridin-1-one], for which the inhibition at 10 µM amounted to 100%.
The same measure, in the same setting: as for `Cc1cc2c(c(-c3ccccc3OCC(F)(F)F)n1)CN(c1ccc(OCC3(OC4CCCCO4)CC3)cc1)C2=O` (racemic) [Example 374, rac-6-methyl-2-[4-({1-[(oxan-2-yl)oxy]cyclopropyl}methoxy)phenyl]-4-[2-(2,2,2-trifluoroethoxy)phenyl]-2,3-dihydro-1H-pyrrolo[3,4-c]pyridin-1-one], the figure is 100%; as for `O=C1c2cc(C3CCCOC3)nc(-c3ccc(F)cc3OCC(F)(F)F)c2CN1c1ccc(F)cc1` (racemic) [Example 386, rac-2-(4-fluorophenyl)-4-[4-fluoro-2-(2,2,2-trifluoroethoxy)phenyl]-6-(oxan-3-yl)-2,3-dihydro-1H-pyrrolo[3,4-c]pyridin-1-one], 99%.
Still for that read-out and setting: the figure for `CC(C)(O)c1ccc(N2Cc3c(cc(C4CCCOC4)nc3-c3ccccc3OCC(F)(F)F)C2=O)cc1` (racemic) [Example 387, rac-2-[4-(2-hydroxypropan-2-yl)phenyl]-6-(oxan-3-yl)-4-[2-(2,2,2-trifluoroethoxy)phenyl]-2,3-dihydro-1H-pyrrolo[3,4-c]pyridin-1-one] is 101%; for `CC(C)(O)c1ccc(N2Cc3c(cc(C4CCOC4)nc3-c3ccccc3OCC(F)F)C2=O)cc1` (racemic) [Example 390, rac-4-[2-(2,2-difluoroethoxy)phenyl]-2-[4-(2-hydroxypropan-2-yl)phenyl]-6-(oxolan-3-yl)-2,3-dihydro-1H-pyrrolo[3,4-c]pyridin-1-one] it is 77%.
Take `O=C1c2ccnc(-c3ccc(F)cc3OCC(F)(F)F)c2CN1c1ccc(C2(O)CCOC2)cc1` (single isomer, unassigned) [Example 243, (R or S)-4-[4-fluoro-2-(2,2,2-trifluoroethoxy)phenyl]-2-[4-(3-hydroxyoxolan-3-yl)phenyl]-2,3-dihydro-1H-pyrrolo[3,4-c]pyridin-1-one]: the inhibition at 10 µM is 97%.
Same read-out and setting: the figure for `O=C1c2ccnc(-c3ccccc3OCC(F)(F)F)c2CN1c1ccc(C(O)C(F)(F)F)nc1` (single isomer, unassigned) [Example 276, (R or S)-4-[2-(2,2,2-trifluoroethoxy)phenyl]-2-[6-(2,2,2-trifluoro-1-hydroxyethyl)pyridin-3-yl]-2,3-dihydro-1H-pyrrolo[3,4-c]pyridin-1-one] is 98%; for `O=C1c2ccnc(-c3ccc(F)cc3OCC(F)(F)F)c2CN1c1ccc(C(O)C(F)F)cc1` (single isomer, unassigned) [Example 278, (R or S)-2-[4-(2,2-difluoro-1-hydroxyethyl)phenyl]-4-[4-fluoro-2-(2,2,2-trifluoroethoxy)phenyl]-2,3-dihydro-1H-pyrrolo[3,4-c]pyridin-1-one] it is 99%.
`O=C1c2ccnc(-c3ccc(F)cc3OCC(F)(F)F)c2CN1c1ccc(C(O)C(F)(F)F)cc1` (single isomer, unassigned) [Example 285, (R or S)-4-[4-fluoro-2-(2,2,2-trifluoroethoxy)phenyl]-2-[4-(2,2,2-trifluoro-1-hydroxyethyl)phenyl]-2,3-dihydro-1H-pyrrolo [3,4-c]pyridin-1-one]: the inhibition at 10 µM worked out at 97%.
On to `O=C1c2ccnc(-c3ccc(F)cc3OCC(F)(F)F)c2CN1c1ccc(C2(O)CCOC2)cn1` (single isomer, unassigned) [Example 300, (R or S)-4-[4-fluoro-2-(2,2,2-trifluoroethoxy)phenyl]-2-[5-(3-hydroxyoxolan-3-yl)pyridin-2-yl]-2,3-dihydro-1H-pyrrolo [3,4-c]pyridin-1-one], for which the inhibition at 10 µM amounted to 98%.
`CC(O)(c1ccc(N2Cc3c(ccnc3-c3ccc(F)cc3OCC(F)(F)F)C2=O)cc1)C(F)F` (single isomer, unassigned) [Example 311, (R or S)-2-[4-(1,1-difluoro-2-hydroxypropan-2-yl)phenyl]-4-[4-fluoro-2-(2,2,2-trifluoroethoxy)phenyl]-2,3-dihydro-1H-pyrrolo[3,4-c]pyridin-1-one]: the inhibition at 10 µM came to 100%.
Regarding `CC(O)(c1ccc(N2Cc3c(ccnc3-c3ccccc3OCC(F)(F)F)C2=O)cc1)C(F)F` (single isomer, unassigned) [Example 315, (R or S)-2-[4-(1,1-difluoro-2-hydroxypropan-2-yl)phenyl]-4-[2-(2,2,2-trifluoroethoxy)phenyl]-2,3-dihydro-1H-pyrrolo[3,4-c]pyridin-1-one], the inhibition at 10 µM is 100%.
Take `COc1ccccc1-c1nccc2c1CN(c1ccc(F)cc1)C2=O` [Example 1, 2-(4-fluorophenyl)-4-(2-methoxyphenyl)-2,3-dihydro-1H-pyrrolo[3,4-c]pyridin-1-one]: the inhibition at 10 µM worked out at 78%.
